Results reported in patent US9980927B2, “Use of tapentadol for inhibiting and/or treating depression and anxiety” (Gruenenthal GmbH, priority 2011, dated 2018).

Columns and labels:
[1] = system: patients with inadequately managed, severe chronic low back pain with or without a neuropathic pain component; test: EuroQol-5 Dimension (EQ-5D) health status index score, same trial; format: in vivo, human patients; conditions: Baseline to Week 12
Source text: This was a multicenter, multinational, open-label, effectiveness phase IIIb trial to evaluate effectiveness and safety of tapentadol prolonged release treatment in patients with inadequately managed, severe chronic low back pain with or without a neuropathic pain component. Patients taking WHO Step II analgesics discontinued those analgesics before starting study medication; patients taking Step I analgesics and/or centrally acting co-analgesics continued on the same dose. […] All patients received tapentadol prolonged release (50-250 mg bid) for up to 12 weeks (5-week titration period and a 7-week maintenance period). Tapentadol immediate release (IR) 50 mg (twice a day, hours apart) was permitted (combined total daily dose of tapentadol prolonged release and tapentadol IR, 500 mg/day). The primary efficacy endpoint was the change from Baseline to Week 6 (when tapentadol prolonged release doses were stable) in average pain intensity on the 11-point NRS-3 using the last observation carried forward (LOCF) for imputing missing scores. […]
All subjects completed Short Form-36 (SF-36) and EuroQol-5 Dimension (EQ-5D) questionnaires and the Hospital Anxiety and Depression Scale (HADS). […] Adverse events were recorded throughout the trial.

[2] = system: patients with inadequately managed, severe chronic low back pain with or without a neuropathic pain component; test: Subject satisfaction with previous/new treatment, same trial; format: in vivo, human patients; conditions: 0.0% at Baseline
Source text: This was a multicenter, multinational, open-label, effectiveness phase IIIb trial to evaluate effectiveness and safety of tapentadol prolonged release treatment in patients with inadequately managed, severe chronic low back pain with or without a neuropathic pain component. Patients taking WHO Step II analgesics discontinued those analgesics before starting study medication; patients taking Step I analgesics and/or centrally acting co-analgesics continued on the same dose. […] All patients received tapentadol prolonged release (50-250 mg bid) for up to 12 weeks (5-week titration period and a 7-week maintenance period). Tapentadol immediate release (IR) 50 mg (twice a day, hours apart) was permitted (combined total daily dose of tapentadol prolonged release and tapentadol IR, 500 mg/day). The primary efficacy endpoint was the change from Baseline to Week 6 (when tapentadol prolonged release doses were stable) in average pain intensity on the 11-point NRS-3 using the last observation carried forward (LOCF) for imputing missing scores. The painDETECT questionnaire was used to evaluate the likelihood of a neuropathic pain component of low back pain; patients were classified as painDETECT “negative,” “unclear,” or “positive.” The population of patients classified as painDETECT negative was limited to approximately 30% of the total population.

CC[C@@H](c1cccc(O)c1)[C@@H](C)CN(C)C [tapentadol, (−)-(1R,2R)-3-(3-dimethylamino-1-ethyl-2-methyl-propyl)-phenol]
mean (SD) change in the EQ-5D health status index score ([1]; patients painDETECT negative, P=0.0022): 0.18
mean (SD) change in the EQ-5D health status index score ([1]; patients painDETECT positive, P<0.0001): 0.36 (0.32)
percentage of patients rating satisfaction with treatment “excellent” or “very good” ([2]; Week 6 (41/138)): 29.7%
percentage of patients rating satisfaction with treatment “excellent” or “very good” ([2]; Week 12 (48/91)): 52.8%
